{"source": "patent EP0192611A2", "about": "“Acylated hexose derivatives and method for their preparation” (CIBA-GEIGY AG, priority 1985, dated 1986)", "test_system": "Influenza-Viren", "test": "Own studies: prophylaxis and therapy of virus infection in mice infected with influenza viruses", "assay_type": "in vivo, Mäuse", "settings": "per se, without admixed vaccine", "description": "Aus der Französischen Patentanmeldung Nr. 74 22 909 mit der Publikationsnummer 2 292 486 sind Huramylpeptide vom Typ der Verbindung N-Acetyl-muramyl-L-alanyl-D-isoglutamin (\"MDP\") bekannt. Diese Verbindungen sind als immunologische Adjuvanzien beschrieben, d.h. sie können in Mischung mit Impfstoffen dazu benützt werden, den Impferfolg zu verbessern. Eigene Untersuchungen, z.B. bei mit Influenza-Viren infizierten Mäusen, haben ergeben, dass N-Acetyl-muramyl-L-alanyl-D-isoglutamin per se, d.h. ohne Beimengung von Impfstoffen, bei der Prophylaxe und Therapie von Virusinfektionen unwirksam ist. Auch ist die Verwendbarkeit strukturell einfacher Muramylpeptide und ihrer Analogen gegen Virusinfektionen bisher nicht beschrieben.", "data": [{"compound": "CC(=O)N[C@H]1C(O)O[C@H](CO)[C@@H](O)[C@@H]1O[C@H](C)C(=O)N[C@@H](C)C(=O)N[C@H](CCC(=O)O)C(N)=O", "note": "(stereo partly drawn) [N-Acetyl-muramyl-L-alanyl-D-isoglutamin]", "values": [{"measurement": "Wirksamkeit bei der Prophylaxe und Therapie von Virusinfektionen", "value": "unwirksam"}]}]}
